Where two headings read alike, the source gives them in different places.
Legend:
[1] = biological target: T1, HDAC6 (Homo sapiens, UniProt Q9UBN7); test: HDAC6 activity assay (fluorescence); details: Compound 1 Log [nM] 4.0; Repeat1/Repeat2
T1 sequence (Q9UBN7 1-1215): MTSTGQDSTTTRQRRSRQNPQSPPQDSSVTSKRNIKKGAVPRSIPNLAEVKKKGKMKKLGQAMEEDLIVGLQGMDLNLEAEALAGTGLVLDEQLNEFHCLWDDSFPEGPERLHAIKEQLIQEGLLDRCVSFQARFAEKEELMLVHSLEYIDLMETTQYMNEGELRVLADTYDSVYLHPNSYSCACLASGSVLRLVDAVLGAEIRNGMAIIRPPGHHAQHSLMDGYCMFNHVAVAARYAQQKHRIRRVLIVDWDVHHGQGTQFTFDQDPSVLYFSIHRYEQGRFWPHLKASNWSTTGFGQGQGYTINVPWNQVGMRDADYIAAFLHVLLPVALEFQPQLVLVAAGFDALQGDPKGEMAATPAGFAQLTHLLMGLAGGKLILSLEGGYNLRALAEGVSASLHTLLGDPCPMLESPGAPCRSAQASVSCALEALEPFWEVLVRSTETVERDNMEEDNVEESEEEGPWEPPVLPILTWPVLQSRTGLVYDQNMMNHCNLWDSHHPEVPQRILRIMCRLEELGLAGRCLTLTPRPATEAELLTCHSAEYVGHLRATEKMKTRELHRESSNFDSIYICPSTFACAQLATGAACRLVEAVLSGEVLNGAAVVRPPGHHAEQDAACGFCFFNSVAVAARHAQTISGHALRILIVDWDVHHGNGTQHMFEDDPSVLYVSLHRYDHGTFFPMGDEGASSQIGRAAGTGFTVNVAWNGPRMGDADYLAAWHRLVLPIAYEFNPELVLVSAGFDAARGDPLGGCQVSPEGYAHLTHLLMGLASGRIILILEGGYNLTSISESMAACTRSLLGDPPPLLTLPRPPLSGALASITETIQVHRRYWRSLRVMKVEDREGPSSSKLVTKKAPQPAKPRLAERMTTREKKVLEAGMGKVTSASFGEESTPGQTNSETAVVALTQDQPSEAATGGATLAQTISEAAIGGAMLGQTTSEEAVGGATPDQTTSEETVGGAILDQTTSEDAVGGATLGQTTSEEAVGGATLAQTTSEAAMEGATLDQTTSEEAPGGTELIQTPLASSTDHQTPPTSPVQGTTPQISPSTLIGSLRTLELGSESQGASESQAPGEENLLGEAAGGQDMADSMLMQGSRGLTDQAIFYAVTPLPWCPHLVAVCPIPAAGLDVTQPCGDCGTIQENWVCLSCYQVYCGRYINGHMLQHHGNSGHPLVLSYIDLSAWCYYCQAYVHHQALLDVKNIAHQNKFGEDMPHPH

[2] = system: wild-type mice; test: Contextual fear conditioning; assay type: in vivo; details: for freezing 24 h after training: vs WT vehicle mice, single tone pairing with 0.35 mA foot shock
Protocol: Contextual fear conditioning was performed to assess whether compound 1 is capable of enhancing memory. This type of cognitive test is much faster than other behavioral tasks that require multiple days of training and testing (J Clin Invest, 2004. 114(11): 1624-34; herein incorporated by reference in its entirety). The conditioning chamber was in a sound-attenuating box. A clear Plexiglas window allowed the experimenter to film the mouse performance with a camera placed on a tripod and connected to the Freezeframe software (MED Ass. Inc.). To provide background white noise (72 dB), a single computer fan was installed in one of the sides of the sound-attenuating chamber. […] The floor was removable, and after each experimental subject, it was cleaned with 75% ethanol and then with water. Only one animal at a time was present in the experimentation […].
[…] The mice remained in the chamber for an additional 30 sec after the end of the last pairing, after which they were returned to their home cages. Contextual fear conditioning was assayed 24 hr after training by replacing the animals in the conditioning context for a 5 min period, during which the incidence of freezing (immobile except for respiration) was recorded. […]
Freezing behavior, defined as the absence of all movement except for that necessitated by breathing, was scored using the Freezeview software.
To evaluate contextual fear learning, freezing was measured for 5 min (consecutively) in the chamber in which the mice was trained 24 hr after training. To evaluate cued fear learning, following contextual testing, the mice were placed in a novel context (triangular cage with smooth flat floor) for 2 min (pre-CS test), after which they were exposed to the CS for 3 min (CS test), and freezing was measured. Sensory perception of the shock was determined through threshold assessment. […] Initially, a […] shock was delivered for 1 sec, and the animal behavior was evaluated for flinching, jumping, and vocalization. […]

[3] = system: BDNF; test: BDNF levels in hippocampi of Aβ-infused mice; assay type: in vivo; details: for hippocampal BDNF levels after Aβ infusion: 20 mg/kg, i.p., 90 min before harvesting, Aβ-infused mice
Text: 3(1): p. 12-29; Caccamo, A., et al., CBP gene transfer increases BDNF levels and ameliorates learning and memory deficits in a mouse model of Alzheimer's disease. Proc Natl Acad Sci USA, 2010. 107(52): p. 22687-92; each herein incorporated by reference in its entirety). […] The Journal of Neuroscience: The Official Journal of the Society for Neuroscience, 2007. 27(10): p. 2628-35; each herein incorporated by reference in its entirety). Thus, preliminary studies on Compound 1 efficacy were extended to BDNF. BDNF levels in the hippocampi of Aβ-infused mice were measured compared to vehicle infused animals. Consistent with the decrease in BDNF levels in brains of AD patients and animal models of AD, a reduction of BDNF levels following Aβ infusion was found (FIG. 23).

[4] = Oral pharmacokinetics; assay type: in vivo; details: for Kp: brain/plasma

With `CCOc1cccc(OCCN(C)C)c1C(=O)Nc1ccc(Cl)c(C(F)(F)F)c1` [Compound 1] the “% Activity (HDAC6)” value [1] was 94.62%, the “freezing 24 h after training” value ([2]; 5 mg/kg) was “froze nearly twice as often” and the “freezing 24 h after training” value ([2]; 20 mg/kg) was “froze nearly twice as often”. For the same compound, the memory effect ([2]; weaker training protocol) was “worked as a memory enhancer”, the “hippocampal BDNF levels after Aβ infusion” value [3] was “rescued” and the “hippocampal BDNF levels after Aβ infusion” value ([3]; listed as YF2) was “rescued Aβ-induced decrease in hippocampal BDNF levels”. For the same compound, the “hippocampal BDNF levels” value ([3]; vehicle-infused mice) was “increased BDNF levels”, the Kp ([4]; po, read-out: AUC0-t ratio brain/plasma) was 6.6 and the Kp ([4]; po, read-out: AUC0-∞ ratio brain/plasma) was 6.5. The Kp ([4]; po, read-out: Cmax ratio brain/plasma) was 5.7, the “amount in the brain compared with plasma” value ([4]; dosed orally, FIG. 17) was “higher than that in the plasma” and the AUC0-t ([4]; oral, brain) was 2149 ng·h/g. The “AUC0-∞” value ([4]; oral, brain) was 2159 ng·h/g, the Cmax ([4]; oral, brain) was 1010 ng/g and the MRT ([4]; oral, brain) was 1.68 h. The Tmax ([4]; oral, brain) was 1 h, the half-life ([4]; oral, brain, read-out: t1/2 (converted)) was 0.99 h and the AUC(0-inf) ([4]; oral, plasma) was 330 ng·h/mL. It also gave a Cmax ([4]; oral, plasma) of 177 ng/mL, an MRT ([4]; oral, plasma) of 1.5 h and a Tmax ([4]; oral, plasma) of 0.5 h. For the same compound, the AUC0-t ([4]; oral, plasma, read-out: AUC0-t) was 328 ng·h/mL, the half-life ([4]; oral, plasma, read-out: t1/2 (converted)) was 1.06 h and the half-life ([4]; po, brain and plasma, read-out: elimination half-lives in the brain and plasma) was ~1 h.
